Read-outs that look alike come from different tables or passages of the source.
Columns and labels:
[1] = system: Mycosphaerella graminicola; Anamorph: Septoria tritici; assay: Leaf blotch of wheat (SEPTTR) disease control on wheat seedlings; format: in vivo; details: Zymoseptoria tritici; for pest or weed control at 121.5 g/ha: low volume application, 121.5 g/H
Procedure: Technical grades of materials were dissolved in acetone, which were then mixed with nine volumes of water containing 110 ppm Triton X-100. The fungicide solutions were applied onto wheat seedlings using an automated booth sprayer to run-off. All sprayed plants were allowed to air dry prior to further handling. All fungicides were evaluated using the aforementioned method for their activity vs. all target diseases. Wheat leaf blotch and brown rust activity were also evaluated using track spray applications, in which case the fungicides were formulated as EC formulations, containing 0.1% Trycol 5941 in the spray solutions. Wheat plants (variety Yuma) were grown from seed in a greenhouse in 50% mineral soil/50% soil-less Metro mix until the first leaf was fully emerged, with 7-10 seedlings per pot. These plants were inoculated with an aqueous spore suspension of Septoria tritici either prior to or after fungicide treatments. After inoculation the plants were kept in 100% relative humidity (one day in a dark dew chamber followed by two to three days in a lighted dew chamber at 20° C.) to permit spores to germinate and infect the leaf. The plants were then transferred to a greenhouse set at 20° C. for disease to develop. When disease symptoms were fully expressed on the 1st leaves of untreated plants, infection levels were assessed on a scale of 0 to 100 percent disease severity. Percent disease control was calculated using the ratio of disease severity on treated plants relative to untreated plants.

[2] = system: Puccinia triticina; Synonym: Puccinia recondite f. sp. tritici; assay: Wheat brown rust (PUCCRT) disease control on wheat seedlings; format: in vivo; details: Puccinia triticina; for pest or weed control at 121.5 g/ha: low volume application, 121.5 g/H
Procedure: Technical grades of materials were dissolved in acetone, which were then mixed with nine volumes of water containing 110 ppm Triton X-100. The fungicide solutions were applied onto wheat seedlings using an automated booth sprayer to run-off. All sprayed plants were allowed to air dry prior to further handling. All fungicides were evaluated using the aforementioned method for their activity vs. all target diseases. Wheat leaf blotch and brown rust activity were also evaluated using track spray applications, in which case the fungicides were formulated as EC formulations, containing 0.1% Trycol 5941 in the spray solutions. Wheat plants (variety Yuma) were grown from seed in a greenhouse in 50% mineral soil/50% soil-less Metro mix until the first leaf was fully emerged, with 7-10 seedlings per pot. These plants were inoculated with an aqueous spore suspension of Puccinia triticina either prior to or after fungicide treatments. After inoculation the plants were kept in a dark dew room at 22° C. with 100% relative humidity overnight to permit spores to germinate and infect the leaf. The plants were then transferred to a greenhouse set at 24° C. for disease to develop. Fungicide formulation, application and disease assessment followed the procedures as described in the Example A.

[3] = 24 h, High volume application, 1 Day Protectant, read-out: SEPTTR 1DP disease control
[4] = 72 h, High volume application, 3 Day Curative, read-out: SEPTTR 3DC disease control
[5] = 24 h, High volume application, 1 Day Protectant, read-out: PUCCRT 1DP disease control
[6] = 72 h, High volume application, 3 Day Curative, read-out: PUCCRT 3DC disease control
[7] = 24 h, Wheat Leaf Blotch, 1 Day Protectant, high volume application, read-out: Disease Control SEPTTR 1 DP 100 ppm
[8] = 24 h, Wheat Leaf Blotch, 1 Day Protectant, read-out: Disease Control SEPTTR 1 DP 121.5 g/H
[9] = 72 h, Wheat Leaf Blotch, 3 Day Curative, high volume application, read-out: Disease Control SEPTTR 3 DC 100 ppm
[10] = 72 h, Wheat Leaf Blotch, 3 Day Curative, read-out: Disease Control SEPTTR 3 DC 121.5 g/H
[11] = 24 h, Wheat Brown Rust, 1 Day Protectant, high volume application, read-out: Disease Control PUCCRT 1 DP 100 ppm
[12] = 24 h, Wheat Brown Rust, 1 Day Protectant, read-out: Disease Control PUCCRT 1 DP 121.5 g/H
[13] = 72 h, Wheat Brown Rust, 3 Day Curative, high volume application, read-out: Disease Control PUCCRT 3 DC 100 ppm
[14] = 72 h, Wheat Brown Rust, 3 Day Curative, read-out: Disease Control PUCCRT 3 DC 121.5 g/H

SMILES	pest or weed control at 100 ppm [1, 3]	pest or weed control at 100 ppm [1, 4]	pest or weed control at 100 ppm [2, 5]	pest or weed control at 100 ppm [2, 6]	pest or weed control at 100 ppm [1, 7]	pest or weed control at 121.5 g/ha [1, 8]	pest or weed control at 100 ppm [1, 9]	pest or weed control at 121.5 g/ha [1, 10]	pest or weed control at 100 ppm [2, 11]	pest or weed control at 121.5 g/ha [2, 12]	pest or weed control at 100 ppm [2, 13]	pest or weed control at 121.5 g/ha [2, 14]
COc1ccnc(C(=O)N[C@H]2CCC[C@H](OC3CCCC3)[C@@H](OCCCC(F)(F)F)[C@H](C)OC2=O)c1OCOC(=O)C(C)C [F126]	80 to 100%	80 to 100%	80 to 100%	80 to 100%	–	–	–	–	–	–	–	–
COc1ccnc(C(=O)N[C@H]2CCC[C@H](OCC(C)C)[C@@H](OC(=O)C3CC3)[C@H](C)OC2=O)c1OC(C)=O [F42]	80 to 100%	80 to 100%	80 to 100%	80 to 100%	–	–	–	–	–	–	–	–
COc1ccnc(C(=O)N[C@H]2CCC[C@H](OCC(C)C)[C@@H](OC/C=C/C(F)(F)F)[C@H](C)OC2=O)c1O [F53]	80 to 100%	0 to 80%	80 to 100%	80 to 100%	–	–	–	–	–	–	–	–
COc1ccnc(C(=O)N[C@H]2CCC[C@H](OC3CCCC3)[C@@H](OCCCC(F)(F)F)[C@H](C)OC2=O)c1OCOC(C)=O [F125]	80 to 100%	80 to 100%	80 to 100%	80 to 100%	–	–	–	–	–	–	–	–
COc1ccnc(C(=O)N[C@H]2CCC[C@H](OCC(C)C)[C@@H](Oc3ccc(C)cc3)[C@H](C)OC2=O)c1OC(C)=O [F92]	80 to 100%	80 to 100%	80 to 100%	80 to 100%	–	–	–	–	–	–	–	–
COc1ccnc(C(=O)N[C@H]2CCC[C@H](OCC(C)C)[C@@H](Oc3ccc(F)cc3)[C@H](C)OC2=O)c1OCOC(C)=O [F61]	80 to 100%	80 to 100%	80 to 100%	80 to 100%	–	–	–	–	–	–	–	–
COc1ccnc(C(=O)N[C@H]2CCC[C@H](Oc3ccccc3)[C@@H](OCCCC(F)(F)F)[C@H](C)OC2=O)c1OC(C)=O [F109]	80 to 100%	80 to 100%	80 to 100%	80 to 100%	–	–	–	–	–	–	–	–
CCCO[C@H]1[C@H](C)OC(=O)[C@@H](NC(=O)c2nccc(OC)c2O)CCC[C@@H]1Oc1ccccc1 [F93]	80 to 100%	80 to 100%	80 to 100%	80 to 100%	–	–	–	–	–	–	–	–
COc1ccnc(C(=O)N[C@H]2CCC[C@H](OC3CCCC3)[C@@H](OCC(C)C)[C@H](C)OC2=O)c1OCOC(=O)C(C)C [F124]	80 to 100%	80 to 100%	80 to 100%	80 to 100%	–	–	–	–	–	–	–	–
COc1ccnc(C(=O)N[C@H]2CCC[C@H](OCCCc3ccccc3)[C@@H](OCC(C)C)[C@H](C)OC2=O)c1O [F219]	80 to 100%	0 to 80%	80 to 100%	80 to 100%	–	–	–	–	–	–	–	–
CCCO[C@H]1CCC[C@H](NC(=O)c2nccc(OC)c2O)C(=O)O[C@@H](C)[C@@H]1OC1CCCC1 [F153]	80 to 100%	80 to 100%	80 to 100%	80 to 100%	–	–	–	–	–	–	–	–
COc1ccnc(C(=O)N[C@H]2CCC[C@H](OCCCC(F)(F)F)[C@@H](Oc3ccccc3)[C@H](C)OC2=O)c1OC(C)=O [F137]	80 to 100%	80 to 100%	80 to 100%	80 to 100%	–	–	–	–	–	–	–	–
COc1ccnc(C(=O)N[C@H]2CCC[C@H](OCC(C)C)[C@@H](Oc3ccccc3)[C@H](C)OC2=O)c1O [F25]	80 to 100%	80 to 100%	80 to 100%	80 to 100%	–	–	–	–	–	–	–	–
COc1ccnc(C(=O)N[C@H]2CCC[C@H](OC(=O)C3CCCC3)[C@@H](OC(=O)C3CCCC3)[C@H](C)OC2=O)c1OCOC(=O)C(C)C [F99]	80 to 100%	80 to 100%	80 to 100%	80 to 100%	–	–	–	–	–	–	–	–
COc1ccc(O[C@H]2CCC[C@H](NC(=O)c3nccc(OC)c3OCOC(C)=O)C(=O)O[C@@H](C)[C@@H]2Oc2ccc(F)cc2)cc1 [F60]	80 to 100%	80 to 100%	80 to 100%	80 to 100%	–	–	–	–	–	–	–	–
CCCO[C@H]1CCC[C@H](NC(=O)c2nccc(OC)c2OC(C)=O)C(=O)O[C@@H](C)[C@@H]1Oc1ccc(OC)cc1 [F274]	–	–	–	–	80 to 100%	80 to 100%	80 to 100%	80 to 100%	80 to 100%	80 to 100%	80 to 100%	0 to 80%
COc1ccnc(C(=O)N[C@H]2CCC[C@H](Oc3ccccc3)[C@@H](OCc3ccccc3)[C@H](C)OC2=O)c1O [F24]	80 to 100%	80 to 100%	80 to 100%	80 to 100%	–	–	–	–	–	–	–	–
COc1ccnc(C(=O)N[C@H]2CCC[C@H](OCc3ccccc3)[C@@H](Oc3ccccc3)[C@H](C)OC2=O)c1O [F23]	80 to 100%	80 to 100%	80 to 100%	80 to 100%	–	–	–	–	–	–	–	–
CCCO[C@H]1[C@H](C)OC(=O)[C@@H](NC(=O)c2nccc(OC)c2OC(C)=O)CCC[C@@H]1Oc1cc(C)cc(C)c1 [F282]	–	–	–	–	80 to 100%	80 to 100%	80 to 100%	80 to 100%	80 to 100%	80 to 100%	80 to 100%	80 to 100%
CCCCCO[C@H]1[C@H](C)OC(=O)[C@@H](NC(=O)c2nccc(OC)c2O)CCC[C@@H]1OC1CCCC1 [F164]	80 to 100%	80 to 100%	80 to 100%	80 to 100%	–	–	–	–	–	–	–	–
COc1ccnc(C(=O)N[C@H]2CCC[C@H](Oc3ccc(F)cc3)[C@@H](OC3CCCC3)[C@H](C)OC2=O)c1OCOC(=O)C(C)C [F161]	80 to 100%	80 to 100%	80 to 100%	80 to 100%	–	–	–	–	–	–	–	–
CCCOC(=O)O[C@H]1CCC[C@H](NC(=O)c2nccc(OC)c2OC(C)=O)C(=O)O[C@@H](C)[C@@H]1Oc1cc(C)cc(C)c1 [F291]	–	–	–	–	80 to 100%	–	80 to 100%	–	80 to 100%	–	0 to 80%	–
COc1ccnc(C(=O)N[C@H]2CCC[C@H](OCC(C)C)[C@@H](OC(=O)C3CCCC3)[C@H](C)OC2=O)c1OC(C)=O [F151]	80 to 100%	80 to 100%	80 to 100%	80 to 100%	–	–	–	–	–	–	–	–
COc1ccnc(C(=O)N[C@H]2CCC[C@H](OCC(C)C)[C@@H](OCCCc3ccccc3)[C@H](C)OC2=O)c1OCOC(C)=O [F43]	80 to 100%	80 to 100%	80 to 100%	80 to 100%	–	–	–	–	–	–	–	–
COCCC(=O)Oc1c(OC)ccnc1C(=O)N[C@H]1CCC[C@H](OC2CCCC2)[C@@H](OC(=O)C2CC2)[C@H](C)OC1=O [F147]	80 to 100%	80 to 100%	80 to 100%	80 to 100%	–	–	–	–	–	–	–	–

From patent publication US9681664B2, “Macrocyclic picolinamides as fungicides” (Dow Agrosciences LLC, priority 2012, dated 2017)
